Publication PMC12118597 (Science Advances, 2025)
“And” between values parts separate entries of the source, which are not always exact repeats. Equal entries are not always repeated. Where two headings read alike, the source gives them in different places.

Tests used:
Kinetic solubility = details: for Kinetic solubility (uM), mean: DMSO concentration 5%; for Mean solubility: phosphate-buffered saline pH 7.4, triplicate
human macrodomain Targ1 = target: T1, human macrodomain Targ1 (Homo sapiens, UniProt Q9Y530); experiment: HTRF peptide displacement assay, human Targ1; type: binding
T1 construct: Targ1_HTRF; HTRF assay; pET22b(+); His6, TEV; 1-153; made in house
T1 sequence (Q9Y530 with tags, fused parts or gaps): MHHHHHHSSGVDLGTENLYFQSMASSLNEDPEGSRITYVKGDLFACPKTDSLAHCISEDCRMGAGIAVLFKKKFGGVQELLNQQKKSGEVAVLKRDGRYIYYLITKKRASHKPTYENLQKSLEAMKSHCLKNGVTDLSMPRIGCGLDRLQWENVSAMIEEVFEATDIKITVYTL

Caco-2 cells = test system: Caco-2 cells
Protocol: Caco-2 cell plates were obtained commercially and were maintained for 21 days at 37°C with 5% CO2. Cells were washed with Hank’s balanced salt solution with 5 mM Hepes for 30 min before starting the experiment. Test compound solutions are prepared by diluting DMSO stock into Hank’s balanced salt solution buffer, resulting in a final DMSO concentration of 0.1%. Before the assay, cell monolayer integrity was verified by […] electrical resistance to ensure that wells have resistance above the acceptance cutoff (1 kilohm). Transport experiments were initiated by adding test compounds to the apical (75 μl) or basal (250 μl) side. Transport plates were incubated at 37°C in a humidified incubator with 5% CO2. Samples were taken from the donor and acceptor compartments after 1 hour and analyzed by liquid chromatography–tandem mass spectrometry (LC-MS/MS) using an AB Sciex API 4000 instrument coupled to a Shimadzu LC-20 AD LC Pump system. Samples were separated using a Waters Atlantis T3 dC18 reverse phase HPLC column (20 mm by 2.1 mm) at a flow rate of 0.5 ml/min. The mobile phase consisted of 0.1% formic acid in acetonitrile (solvent A) and 0.1% formic acid in water (solvent B).
Apparent permeability (Papp) values were calculated using the following equation Papp=(dQ/dt)/A/C0 where dQ/dt is the initial rate of compound transport across the cell monolayer, A is the surface area of the filter membrane, and C0 is the initial concentration of the test compound, calculated for each direction using a four-point calibration curve by LC-MS/MS.
The net flux ratio between the two directional transports was calculated by the following equation Ratio=PappB−A/PappA−B where PappB-A and PappA-B represent the apparent permeability of compounds from the basal-to-apical and apical-to-basal sides of the cellular monolayer, respectively. Recovery was calculated on the basis of the compound concentration at the end of the experiment compared to that at the beginning of the experiment, adjusted for volumes.

[1] = target: T2, SARS-CoV-2 NSP3 macrodomain (Mac1) (Severe acute respiratory syndrome coronavirus 2, UniProt P0DTD1); experiment: biochemical; type: binding
[2] = target: T3, human macrodomain MacroD2 (Homo sapiens, UniProt A1Z1Q3); experiment: HTRF peptide displacement assay, human MacroD2; type: binding
T3 construct: MacroD2_HTRF; HTRF assay; pET22b(+); His6, TEV, Avi; 2-425; made in house
T3 sequence (A1Z1Q3 with tags, fused parts or gaps): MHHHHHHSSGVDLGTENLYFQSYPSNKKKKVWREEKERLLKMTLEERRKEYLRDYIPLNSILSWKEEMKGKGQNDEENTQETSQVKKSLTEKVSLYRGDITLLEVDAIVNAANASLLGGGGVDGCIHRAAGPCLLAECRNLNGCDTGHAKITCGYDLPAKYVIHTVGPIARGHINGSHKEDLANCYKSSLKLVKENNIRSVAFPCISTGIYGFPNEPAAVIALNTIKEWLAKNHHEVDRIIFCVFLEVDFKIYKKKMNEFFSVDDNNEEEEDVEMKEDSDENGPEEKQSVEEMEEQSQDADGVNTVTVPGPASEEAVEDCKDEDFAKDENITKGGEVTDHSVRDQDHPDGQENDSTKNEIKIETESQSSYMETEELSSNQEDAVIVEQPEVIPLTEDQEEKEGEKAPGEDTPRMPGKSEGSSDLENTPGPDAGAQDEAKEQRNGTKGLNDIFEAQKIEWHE

Microsomal stability = type: in vitro ADME, mouse; details: for T1/2 (min), mean: Mouse microsome stability assay; for CLint (mouse): intrinsic clearance from t1/2
Protocol: The assay was carried out in 96-well plates at 37°C. Reaction mixtures (25 μl) contained a final concentration of 1 μM compound, liver microsome protein (0.5 mg/ml), and 1 mM NADPH (reduced form of nicotinamide adenine dinucleotide phosphate) and/or 1 mM uridine diphosphate glucuronic acid (with alamethicin) in 100 mM potassium phosphate (pH 7.4) with 3 mM MgCl2. After 0, 15, 30, and 60 min, 150 μl of quench solution (100% acetonitrile with 0.1% formic acid) with an internal standard was transferred to each well. Reactions containing the same components, except NADPH, were prepared as the negative control.
The extent of metabolism was calculated as the disappearance of compounds compared to the 0-min time incubation.

[3] = target: T2, SARS-CoV-2 NSP3 macrodomain (Mac1); type: binding; details: for 1-BDC: PanDDA background density correction factor; for Total number of conformations: ligand conformations modeled in the crystal structure; for 2*(1-BDC) (%): occupancy estimate from PanDDA; for Refined ligand occupancy (%): refined crystallographic occupancy
Mac1 = details: cited from earlier work
[4] = Caco-2 permeability assay, compound concentration 5
[5] = HTRF binding curve, SARS-CoV-2 Mac1
[6] = SARS CoV-2 macrodomain HTRF assay, dose-response
[7] = crystal soak 10 mM, P43 crystal form
[8] = Caco-2, compound concentration 5

Structure (SMILES)	Kinetic solubility (uM), mean (Kinetic solubility)	Mean solubility (Kinetic solubility)	showed binding to the human macrodomain Targ1 (human macrodomain Targ1; result in words)	Recover Rate (%) (Caco-2 cells; [4])	Hill slope [1, 5]	Hill slope [1, 6]	showed binding to the human macrodomain MacroD2 ([2]; result in words)	T1/2 (min), mean (Microsomal stability)	CLint (mouse) (Microsomal stability)	Occupancy difference (refined_occupancy - 2*(1-BDC)) [3]	1-BDC [3]	PanDDA run, overall: Hit [3, 7]	PanDDA run, DMSO background map: 1-BDC ([3]; crystal soak 10 mM)	PanDDA run, DMSO background map: Hit ([3]; crystal soak 10 mM)	Total number of conformations [3]	2*(1-BDC) (%) [3]	Refined ligand occupancy (%) [3]	Recover Rate (%) (Caco-2 cells; [8])	also measured
CC(C)(O)[C@H]1CCCN1c1ncnc2[nH]ccc12 [AVI-607, 2-[(2R)-1-{7H-pyrrolo[2,3-d]pyrimidin-4-yl}pyrrolidin-2-yl]propan-2-ol]	518 µM	518 µM	none	93%	1.5	1.5	none	19 min	73 µl/min/mg protein	5	0.44	TRUE	0.42 and 0.44	TRUE	1	88%	93%	–	inhibition at 200 µM ([1]; SARS CoV-2 macrodomain HTRF assay, single dose concentration 200 μM, read-out: Average % competition): 100%; inhibition at 200 µM ([1]; compound at 200 μM, mean of three to four technical replicates, read-out: % competition at 200 μM (preliminary HTRF screen)): 100%; PanDDA run, overall: Modeling comment ([3]; crystal soak 10 mM): High occupancy, use manual refinement; X-ray crystal structure ([3]; ligand-bound crystal structure obtained (TRUE)): TRUE; Binding site ([3]; site occupied in X-ray crystal structure): Adenosine
C[C@H]1CCCN(c2ncnc3[nH]ccc23)[C@H]1CO [AVI-3716]	523 µM	523 µM	none	104%	–	–	none	–	44.4 µl/min/mg protein	–	–	–	–	–	–	–	–	–	Mouse microsome T1/2 (Microsomal stability; 1 μM compound, 0.5 mg/ml microsome protein): 31.2 min
Cc1c[nH]c2ncnc(NCC3(O)CCCCC3)c12 [AVI-3761, 1-(((5-methyl-7H-pyrrolo[2,3-d]pyrimidin-4-yl)amino)methyl)cyclohexan-1-ol]	–	–	–	–	–	–	–	7.49 min	185 µl/min/mg protein	–	–	–	–	–	–	–	–	86%	showed binding to the human macrodomain Targ1 (human macrodomain Targ1): none; showed binding to the human macrodomain MacroD2 [2]: none
CCNC(=O)Nc1cccc2c1[nH]c1ncnc(NN3C(=O)CCC3(C)C)c12 [AVI-4206]	–	–	–	–	–	–	–	–	–	–	–	–	–	–	–	–	–	–	potency (in words) (Mac1): double-digit nanomolar
CC(c1ccccc1)C(CO)Nc1ncnc2[nH]ccc12 (stereo not shown) [AVI-3669]	529 µM	529 µM	none	–	1.2	1.2	none	8.3 min	166.4 µl/min/mg protein	0	0.14	TRUE	0.14	TRUE	1	28%	28%	93%	X-ray crystal structure ([3]; TRUE = crystal structure with ligand obtained): TRUE; PanDDA run, overall: Modeled [3, 7]: TRUE; Binding site ([3]; site of ligand in X-ray crystal structure): Adenosine
